According to patent US20210128736A1, “STEREOCOMPLEX OF OLIGOLACTIC ACID CONJUGATES IN MICELLES FOR IMPROVED PHYSICAL STABILITY AND ENHANCED ANTITUMOR EFFICACY” (Wisconsin Alumni Research Foundation, priority 2018, published 2021):

How the values were obtained:
[1] = tested on: human A549 non-small lung cancer cells; assay: In vitro cytotoxicity, CellTiter-Blue Cell Viability Assay, A549; type: cell-based; conditions: 72 hours incubation, micelles at 15% loading
Procedure: (§1) In vitro cytotoxicity studies. […] A549 cells were seeded into a 96-well plate at a seeding density of 1,500 cells/100 μL/well and cultured in RPMI 1640 medium, or PANC-1 cells were seeded into a 96-well plate at a seeding density of 5,000 cells/100 μL/well and cultured in Dulbecco Modified Eagle Medium (DMEM), at 37° C. in 5% CO2 incubator for 24 h. […] Cells cultured with diluted PBS in medium was used as controls. Drug treated cells were placed in an incubator at 5% CO2 at 37° C. for 72 h. The medium in each well was aspirated, and 100 μL of 20% (v/v) CellTiter-Blue reagent in serum free RPMI 1640 or DMEM was added, followed by incubation at 37° C. in 5% CO2 atmosphere for 1.5 h. Fluorescence intensity was measured by a SpectraMax M2 plate reader (Molecular Devices, San Jose, Calif.) with excitation and emission at 560 and 590 nm, respectively. The half maximal inhibitory drug concentration (IC50) was determined by using GraphPad Prism version 5.00 for Windows (GraphPad Software, La Jolla, Calif.).

[2] = tested on: PANC-1 pancreatic cancer cells; assay: In vitro cytotoxicity, CellTiter-Blue Cell Viability Assay, PANC-1; type: cell-based; conditions: Homo sapiens; PANC-1 cells, 72 hours incubation; micelles at 15% loading
Procedure: as §1

[3] = tested on: A549 non-small cell lung cancer xenograft; assay: In vivo antitumor efficacy in A549 xenograft model; parameters: species or system female athymic nude mice; conditions: 3-weekly I.V. injections at 10 mg/kg equivalent of GEM; micelles 5% loading; vs saline control
Procedure: In vivo antitumor efficacy studies. […] 6-8 week-old female athymic nude mice (20-25 g each) were acquired from laboratory animal resources at School of Medicine and Public Health, University of Wisconsin-Madison. Mice were housed in ventilated cages with free access to water and food and acclimated for 1 week prior tumor cell injection. A549 cells (2×10^6 cells in 100 μL of serum-free RPMI 1640 medium) were harvested from sub-confluent cultures after trypsinization and were injected subcutaneously into the right flank of each mouse. […] Drugs were administered via tail vein for 3 weekly injections. Body weight and tumor volume were monitored over the course of study. Tumor volume was calculated using the formula: V=(a×b^2)/2, where V is tumor volume, a is tumor length, b is tumor width.

[4] = mice, reported; cited from earlier work
subcutaneous tumors = conditions: cited from earlier work
[5] = Stability in rat plasma at 37° C. (RP-HPLC); conditions: 24 hours

For `Nc1ccn([C@@H]2O[C@H](CO)[C@@H](O)C2(F)F)c(=O)n1` [GEM, Gemcitabine], the IC50 [1] was ~1.1 µM, the IC50 [2] was ~9.2 µM and the “antitumor efficacy (tumor growth, relative tumor volume)” value [3] was “not effective”. The “maximum tolerated doses (MTD)” value [4] was 100 mg/kg, the “dose required to inhibit tumor growth” value (subcutaneous tumors; mice bearing subcutaneous tumors) was 100 mg/kg and the “efficacy against subcutaneous tumors” value (subcutaneous tumors; mice, GEM at 10 mg/kg) was “generally ineffective”. For the same compound, the “intact GEM detected after incubation in plasma” value [5] was “less than 50%”.
